In patent publication US5691338A, “1,2-dithiole-3 thiones for the treatment of reverse transcriptase-dependent viral infections” (priority 1995, dated 1997):
Where a name gives a salt, the structure may show the parent alone. Read-outs that look alike come from different tables or passages of the source.

Legend:
[1] = system: HIV-1 (HTLVIIIB); assay: microbe, parasite or virus in culture; type: cell-based; conditions: H9 cells; for IC50: Human immunodeficiency virus 1
Protocol: (§3) The effects for test compounds were assessed by means of both IFA and p24 release. In general, the following protocol was followed: H9 cells were infected with HIV-1 at 1000 50% infective doses of viruses/10^6 cells. Virus was allowed to adsorb for 1 h, after which unadsorbed virus was removed by centrifugation. The cells were resuspended and washed twice with PBS (without Ca^+2 or Mg^+2 salts) and centrifuged to collect the cell pellet (150×g×10 min). Cells were suspended in fresh medium and added at a final cell density of 500,000 cells/ml in a 96-well plate with media containing 0.1% DMSO and various concentrations of test compounds. The cells were re-fed freshly prepared media containing 0.1% DMSO±test compounds on day four (for preinduction experiments, cells were exposed to inducers on days -2, 0, and +4 days relative to infection). After seven days, cells were examined for cytoxicity by trypan blue exclusion, the degree of infection with HIV-1 by IFA, and the supernatants were assayed for p24 levels according to the manufacturer's directions. The IFA procedure can be summarized as follows: The cells were washed twice in PBS and were placed in 5 mm 12-well slides. After allowing the slides to dry and fixing the cells with acetone for 5 min, 10 μl of HIV-1 positive serum in 40 μl PBS was added to each well and allowed to incubate at 37° C. for 30 min. After incubation, the slides were washed twice with PBS and incubated at 37° C. for 30 min with 2.5 μl goat anti-human IgG-fluorescein isothiocyanate conjugate in 50 μl PBS containing 0.01% Evans Blue per well. The slides were then washed twice with PBS, dried, and mounted with 50% glycerol in PBS, and scored for the percentage of fluorescent cells by fluorescent microscopy.

[2] = target: T1, HIV-1 reverse transcriptase (RT) (Human immunodeficiency virus type 1 group M subtype B, UniProt P04585); assay: Inhibition of recombinant HIV-1 reverse transcriptase (TTP incorporation); type: biochemical
T1 construct: Recombinant HIV-1 reverse transcriptase (RT) was obtained from Worthington (Freehold, N.J.); purchased Worthington (Freehold, N.J.)
Protocol: (§1) Reverse transcriptase assays were performed as described by Flexner, et al. (25) using recombinant HIV-1 RT as the source of enzyme. Dilutions and assay were carried out in 96-well "half-area" plates. The enzyme with various concentrations of test compounds were dissolved in DPBS containing 1% w/v BSA and diluted in 50 μl volumes; 10 μl aliquots in triplicate were transferred to another plate for the enzyme assay. The reactions were initiated by the addition of 25 μl/well of buffer containing 50 mM Tris.cndot.Cl (pH 8.0), 75 mM KCl, 1 mM dithiothreitol, 2 mM MgCl2, 5 μg/ml poly(A), 2.5 μg/ml oligo (dT), 10 μCi/ml ^32 p TTP with or without unlabeled TTP. […] TTP incorporation was measured by spotting 20 μl of the reaction cocktail onto DE81 paper, washing the paper with 4×5 min washes of 300 mM NaCl and 30 mM sodium citrate (pH 7.0), drying the paper, and counting the paper by liquid scintillation counting. The assays performed with oltipraz and 1,2-dithiole-3-thione contained 0.29% final concentration DMSO. This concentration of DMSO had no effect on RT activity.

[3] = system: glutathione levels (GSH) in H9 cells; assay: Elevation of glutathione (GSH) levels in H9 cells; type: cell-based, human; conditions: for fold induction at 30 µM / fold induction at 60 µM / fold induction at 120 µM: Homo sapiens, read-out: Glutathione levels, treated to control value; for elevation of GSH: dose- and time-dependent, H9 cells
Protocol: (§2) Five ml of medium was added to T-25 flasks and DMSO containing tests compounds were added to a final concentration of 0.1%. Control medium contained 0.1% DMSO. After the drugs were added, 5×10^6 cells in 5 ml of medium was added to each T-25 flask. The cells were grown at 37° C. in a humidified incubator supplemented with 5% CO2 until harvested (N=3 flasks/group). At the indicated times, cells were isolated by centrifugation (500×g×10 min) and were washed three times by adding 10 ml of ice-cold DPBS, mixing, and centrifuging in a refrigerated centrifuge (500×g×10 min) to isolate the cell pellets. The cells were then lysed by the addition of 400 μl of ice-cold DPBS containing 0.5% Triton X-100 and vortexing. Supernatants were then isolated by centrifuging the lysates (5000×g×20 min). Samples were kept on ice or refrigerated until the reagents for QR or GSH spectrophotometric assays were added to the aliquoted microtiter plates. QR levels were determined by aliquoting 10 μl/well of supernatant in a 96-well plate and measuring the activity by the assay described by Prochaska and Santamaria (20) except that the final NADP^+ concentration was 200 μM (21). Samples were assayed in quadruplicate, and dicoumarol inhibitable-rates (which generally represented less than 5% of the total rate) were also measured. Spectrophotometric blanks contained 10 μl of DPBS with 0.5% Triton X-100. For the GSH assay, 300 μl of sample was placed in a centricon-10microconcentrator and centrifuged (5000×g×45 min) until enough ultrafiltrate could be collected. 50 μl/well of sample in quadruplicate was placed in a 96 well "half-area" plate after which 20 μl of 1 mM Ellman's reagent dissolved in DPBS was added. The yellow color (22) developed within 5 min and was scanned with a uvmax microtiter scanner (Palo Alto, Calif.) at 405 nm. Spectrophotometric blanks contained 50 μl DPBS with 0.5% Triton X-100 and 20 μl of 1 mM Ellman's reagent in DPBS. The optical densities of the specimens were calibrated to a GSH standard curve. Protein contents were determined in 3 ml cuvettes by the Bradford method (23). The protein content in the ultrafiltrates employed for GSH determinations were negligible (<0.01 mg/ml).

[4] = system: quinone reductase (QR) in H9 cells; assay: Elevation of quinone reductase (QR) in H9 cells; type: cell-based, human; conditions: for fold induction at 30 µM / fold induction at 60 µM / fold induction at 120 µM: Homo sapiens, read-out: Quinone reductase, treated to control value; for elevation of QR: dose- and time-dependent, H9 cells
Protocol: as §2
We confirmed that the induction of QR in microtiter wells mirrored our results in T-25 flasks by using the method of Prochaska and Santamaria (20). Medium (100 μl) containing 0.1% final concentration DMSO was added to all wells except columns designated to contain the highest concentration of drug or spectrophotometric blanks in duplicate sets of U-bottomed microtiter plates. 200 μl of media containing drug (final DMSO concentration=0.1%) was added to the empty column of wells and then diluted in 2-fold serial dilutions across. After the serial dilutions were performed, 100 μl of media containing 1×10^6 cells/ml was added to each well, and the plates were placed in a 37° C. incubator for 48 h. One set of plates was assayed as described (21) for QR activity, the other was assayed for cell number by the method for Alley et al. (24).

[5] = system: H9 cells; assay: Cytotoxicity in H9 cells by trypan blue exclusion; type: cell-based, human
Protocol: as §3

[6] = target: T1, HIV-1 reverse transcriptase (RT); assay: Time-dependent (irreversible) inhibition of HIV-1 reverse transcriptase after preincubation; type: biochemical; conditions: kinetic behaviour
Protocol: FIG. 6. […] RT was preincubated for the times indicated with oltipraz dissolved in DPBS containing 1 mg/ml bovine serum albumin, 0.13% DMSO, and either 4 μM TTP or 5 μg/ml poly(A):2.5 μg/ml oligo(dT). After incubation, 10 μl aliquots in triplicate were added to 25 μl of a reaction cocktail containing 4 μM TTP, 5 μg/ml poly(A), and 2.5 μg/ml oligo(dT) and assayed for TTP incorporation into DNA over 30 min. as described by Flexner, et al. (25). The insets are Kitz-Wilson transformations (41).
as §1, with “DMSO.” for “DMSO. This concentration of DMSO had no effect on RT activity.”

[7] = Exp 1, IFA, read-out: IC50 HIV-1 replication (Exp 1)
[8] = Exp 2, IFA, read-out: IC50 HIV-1 replication (Exp 2)

S=c1ccss1 [1,2-dithiole-3-thione]
inhibition of HIV-1 replication ([1]; up to 120 μM): inactive
inhibition of recombinant HIV-1 reverse transcriptase ([2]; poly(A):oligo(dT) and TTP as substrates): inactive
Glutathione Levels ([3]; 48 h, 30 μM): 53.5 ± 7.1 nmol/mg
Glutathione Levels ([3]; 48 h, 60 μM): 57.5 ± 1.3 nmol/mg
Glutathione Levels ([3]; 48 h, 120 μM): 74.9 ± 3.6 nmol/mg
Glutathione Levels ([3]; 96 h, 30 μM): 59.4 ± 1.4 nmol/mg
Glutathione Levels ([3]; 96 h, 60 μM): 65.0 ± 2.1 nmol/mg
Glutathione Levels ([3]; 96 h, 120 μM): 109 ± 28 nmol/mg
fold induction at 30 µM ([3]; H9, 48 h): 1.17
fold induction at 60 µM ([3]; H9, 48 h): 1.26
fold induction at 120 µM ([3]; H9, 48 h): 1.63
fold induction at 30 µM ([3]; H9, 96 h): 1.17
fold induction at 60 µM ([3]; H9, 96 h): 1.71
fold induction at 120 µM ([3]; H9, 96 h): 2.15
elevation of GSH [3]: able to elevate both GSH and QR levels
Quinone Reductase Specific Activity ([4]; 48 h, 30 μM): 232 ± 16 nmol/min/mg
Quinone Reductase Specific Activity ([4]; 48 h, 60 μM): 244 ± 12.1 nmol/min/mg
Quinone Reductase Specific Activity ([4]; 48 h, 120 μM): 299 ± 11 nmol/min/mg
Quinone Reductase Specific Activity ([4]; 96 h, 30 μM): 59.4 ± 1.4 nmol/min/mg
Quinone Reductase Specific Activity ([4]; 96 h, 60 μM): 65.0 ± 2.1 nmol/min/mg
Quinone Reductase Specific Activity ([4]; 96 h, 120 μM): 109 ± 28 nmol/min/mg
fold induction at 30 µM ([4]; H9, 48 h): 1.61
fold induction at 60 µM ([4]; H9, 48 h): 1.67
fold induction at 120 µM ([4]; H9, 48 h): 2.07
fold induction at 30 µM ([4]; H9, 96 h): 1.17
fold induction at 60 µM ([4]; H9, 96 h): 1.71
fold induction at 120 µM ([4]; H9, 96 h): 2.15
elevation of QR [4]: able to elevate both GSH and QR levels
cytotoxicity at optimal inductive doses ([5]; up to 30 μM (tert-butylhydroquinone), 120 μM (1,2-dithiole-3-thione), 60 μM (dimethyl fumarate)): non-cytotoxic

Cc1cn([C@H]2C[C@H](N=[N+]=[N-])[C@@H](COP(=O)(O)OP(=O)(O)OP(=O)(O)O)O2)c(=O)[nH]c1=O [AZT triphosphate, 3'-azido-3'-deoxythymidine-5'-triphosphate]
potency relative to oltipraz (reverse transcriptase) ([2]; identical assay conditions): approximately 1000 fold

S=c1cc(-c2ccccc2)ss1 [compound 1]
IC50 HIV-1 replication (Exp 1) ([1]; Exp 1, IFA): Inactive
IC50 HIV-1 replication (Exp 2) ([1]; Exp 2, IFA): Inactive

COc1ccc(-c2cc(=S)ss2)cc1 [compound 2]
IC50 HIV-1 replication (Exp 1) ([1]; Exp 1, IFA): Inactive
IC50 HIV-1 replication (Exp 2) ([1]; Exp 2, IFA): Inactive

O=c1cc(-c2cnccn2)ss1 [compound 3]
IC50 HIV-1 replication (Exp 2) ([1]; Exp 2, IFA): Inactive
IC50 [1, 7]: 4 µM

Cc1ncc(-c2cc(=S)ss2)nc1C [compound 4]
IC50 HIV-1 replication (Exp 1) ([1]; Exp 1, IFA): Inactive
IC50 HIV-1 replication (Exp 2) ([1]; Exp 2, IFA): Inactive

Cc1c(-c2ccccn2)ssc1=S [compound 5]
IC50 [1, 7]: 3 µM
IC50 [1, 8]: 10 µM

Cc1c(-c2cccnc2)ssc1=S [compound 6]
IC50 HIV-1 replication (Exp 2) ([1]; Exp 2, IFA): Inactive
IC50 [1, 7]: 10 µM

Cc1c(-c2ccncc2)ssc1=S [compound 7]
IC50 [1, 7]: 60 µM
IC50 [1, 8]: 60 µM

Cc1c(-c2cccnn2)ssc1=S [compound 8]
IC50 [1, 7]: 2 µM
IC50 [1, 8]: 4 µM

Cc1c(-c2cccs2)ssc1=S [compound 9, 4-methyl-5-(2-thiofuranyl)-1,2-dithiole-3-thione]
IC50 [1, 7]: 0.4 µM
IC50 [1, 8]: 2 µM
IC50 ([1]; N=5 independent experiments, IFA, read-out: IC50 HIV-1 replication): 1.8 ± 0.7 µM
irreversible inhibition of reverse transcriptase [6]: behaves kinetically as an irreversible inhibitor of reverse transcriptase

Cc1c(C=Cc2cnccn2)ssc1=S [compound 10]
IC50 [1, 7]: > 60 µM
IC50 [1, 8]: > 60 µM

Cc1c(-c2cnccn2)ssc1=O [compound 12]
IC50 HIV-1 replication (Exp 2) ([1]; Exp 2, IFA): Inactive
IC50 [1, 7]: 10 µM

OCc1c(-c2cnccn2)ssc1=S [compound 13]
IC50 [1, 7]: 0.4 µM
IC50 [1, 8]: 0.2 µM

CCc1c(-c2cnccn2)ssc1=S [compound 14]
IC50 [1, 7]: 15 µM
IC50 [1, 8]: 15 µM

CCCCc1c(-c2cnccn2)ssc1=S [compound 15]
IC50 [1, 7]: 2 µM
IC50 [1, 8]: 2 µM

CCOC(=O)c1c(-c2ccccn2)ssc1=S [compound 16]
IC50 [1, 7]: 1 µM
IC50 [1, 8]: 4 µM

CCOC(=O)c1c(-c2ccncc2)ssc1=S [compound 17]
IC50 [1, 7]: 15 µM
IC50 [1, 8]: > 60 µM

CC(C)c1ccc(Nc2ssc(=S)c2Cl)cc1 [compound 18]
IC50 [1, 7]: 0.4 µM
IC50 [1, 8]: > 60 µM

CC(C)c1ccc(Nc2ssc(=O)c2Cl)cc1 [compound 19]
IC50 [1, 7]: > 60 µM
IC50 [1, 8]: 1 µM

CCOC(=O)Cc1c(-c2cncnc2)ssc1=S [compound 20]
IC50 [1, 7]: > 60 µM
IC50 [1, 8]: > 60 µM

CC(C)N(C(=O)Cc1c(-c2cncnc2)ssc1=S)C(C)C [compound 21]
IC50 [1, 7]: 1 µM
IC50 [1, 8]: > 60 µM

S=c1ssc(-c2cccnn2)c1CCc1ccccc1 [compound 22]
IC50 [1, 7]: 0.4 µM
IC50 [1, 8]: > 60 µM

CN(C)CCCON=c1cc(-c2ccncc2)ss1 [compound 23]
IC50 [1, 7]: 0.4 µM
IC50 [1, 8]: > 60 µM

CCCCc1c(-c2ccc(N(C)C)nn2)ssc1=S [compound 24]
IC50 HIV-1 replication (Exp 1) ([1]; Exp 1, IFA): Inactive
IC50 HIV-1 replication (Exp 2) ([1]; Exp 2, IFA): Inactive

COC(=O)/C=C/C(=O)OC [dimethyl fumarate]
inhibition of HIV-1 replication ([1]; up to 60 μM): inactive
elevation of GSH [3]: able to elevate both GSH and QR levels
elevation of QR [4]: able to elevate both GSH and QR levels
cytotoxicity at optimal inductive doses [5]: non-cytotoxic

CC(C)(C)c1cc(O)ccc1O [tert-butylhydroquinone]
inhibition of HIV-1 replication ([1]; up to 30 μM): inactive
elevation of GSH [3]: able to elevate both GSH and QR levels
elevation of QR [4]: able to elevate both GSH and QR levels
cytotoxicity at optimal inductive doses [5]: non-cytotoxic
